Results published in US12428406B2 (PMV Pharmaceuticals, Inc., priority 2019, dated 2025).

The compounds below were run against T1, p53 Y220C (Homo sapiens, UniProt P04637, Y220C) (assay: In vitro DNA binding activity assay (HTRF / TR-FRET): stabilization of p53 Y220C and increase of its DNA binding activity). Conditions: recombinant His-tagged p53 Y220C DNA binding domain (aa 94-312), biotin-labeled consensus DNA, incubated at 27° C. or 29° C. for 60 min.
T1 construct: The recombinant protein was a truncation mutant containing only amino acids 94-312 of p53; made in house; host or cells: E. coli
Assay type: biochemical
In short: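 Homogeneous time-resolved fluorescence with E. coli-derived p53 Y220C and biotinylated consensus DNA. Room-temperature incubations of 15 and 20 min precede reading. SC150 denotes the compound concentration required for 50% increased DNA binding.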

T1 sequence (P04637 94-312, change not shown): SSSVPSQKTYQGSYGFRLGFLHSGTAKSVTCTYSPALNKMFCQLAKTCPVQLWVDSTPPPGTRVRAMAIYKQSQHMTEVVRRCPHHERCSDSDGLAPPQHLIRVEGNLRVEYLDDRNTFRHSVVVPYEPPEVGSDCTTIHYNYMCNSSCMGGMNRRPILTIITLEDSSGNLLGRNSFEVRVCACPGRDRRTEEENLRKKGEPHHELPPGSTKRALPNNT

Compound | SC150 (concentration of the compound required to increase the DNA binding activity by 50%)
Cc1cc(S(C)(=O)=O)ccc1NCC#Cc1cc2c(N[C@H]3CC[C@H](N4CC5(COC5)C4)CC3)cccc2n1CC(F)(F)F [Compound 283A, 2-{3-[(4-methanesulfonyl-2-methylphenyl)amino]prop-1-yn-1-yl}-N-[(1R,4R)-4-{2-oxa-6-azaspiro[3.3]heptan-6-yl}cyclohexyl]-1-(2,2,2-trifluoroethyl)-1H-indol-4-amine] | + (+ = 0 μM ≤ SC150 < 0.05 μM)
COc1cc(S(C)(=O)=O)ccc1NCC#Cc1cc2c(N[C@H]3CC[C@H](N4CCC5(CCO5)CC4)CC3)cccc2n1CC(F)(F)F [Compound 383A, 2-{3-[(4-methane-sulfonyl-2-methoxy-phenyl)amino]prop-1-yn-1-yl}-N-[(1R,4R)-4-{1-oxa-7-azaspiro[3.5]nonan-7-yl}cyclohexyl]-1-(2,2,2-trifluoroethyl)-1H-indol-4-amine] | + (+ = 0 μM ≤ SC150 < 0.05 μM)
COc1cc(S(C)(=O)=O)ccc1NCC#Cc1cc2c(N[C@H]3CC[C@H](N4CC[S+]([O-])CC4)CC3)cccc2n1CC(F)(F)F [Compound 364A, 4-[(1R,4R)-4-[(2-{3-[(4-methanesulfonyl-2-methoxyphenyl)amino]prop-1-yn-1-yl}-1-(2,2,2-trifluoroethyl)-1H-indol-4-yl)amino]cyclohexyl]-1λ^4-thiomorpholin-1-one] | + (+ = 0 μM ≤ SC150 < 0.05 μM)
CS(=O)(=O)c1ccc(NCC#Cc2cc3c(NC4CCS(=O)(=O)CC4)cccc3n2CC(F)(F)F)c(OC(F)(F)F)c1 [Compound 1035A, 4-{[2-(3-{[4-methanesulfonyl-2-(trifluoromethoxy)phenyl]amino}prop-1-yn-1-yl)-1-(2,2,2-trifluoroethyl)-1H-indol-4-yl]amino}-1λ^6-thiane-1,1-dione] | + (+ = 0 μM ≤ SC150 < 0.05 μM)
CN1CC[C@@H](Nc2cccc3c2cc(C#CCNc2ccc(S(C)(=O)=O)cc2OCF)n3CC(F)(F)F)[C@@H](F)C1 [Compound 842A] | + (+ = 0 μM ≤ SC150 < 0.05 μM)
CS(=O)(=O)c1ccc(OCC#Cc2cc3c(N[C@H]4CC[C@@H](N5CC6(COC6)C5)CC4)cccc3n2CC(F)(F)F)c(N)c1 [Compound 233A, 2-[3-(2-amino-4-methanesulfonyl-phenoxy)prop-1-yn-1-yl]-N-[(1S,4S)-4-{2-oxa-6-azaspiro[3.3]heptan-6-yl}cyclohexyl]-1-(2,2,2-trifluoroethyl)-1H-indol-4-amine] | ++ (++ = 0.05 μM ≤ SC150 < 0.1 μM)
CNC(=O)c1cc(OC)c(NCC#Cc2cc3c(N[C@H]4CC[C@H](N5CC6(CCOCC6)C5)CC4)cccc3n2CC(F)(F)F)cc1F [Compound 335A, 2-fluoro-5-methoxy-N-methyl-4-{[3-(4-{[(1R,4R)-4-{7-oxa-2-azaspiro[3.5]nonan-2-yl}cyclohexyl]amino}-1-(2,2,2-trifluoroethyl)-1H-indol-2-yl)prop-2-yn-1-yl]amino}benzamide] | + (+ = 0 μM ≤ SC150 < 0.05 μM)
CCN(CC)[C@H]1CC[C@H](Nc2cccc3c2cc(C#CCNc2ccc(S(C)(=O)=O)cc2OC)n3CC(F)(F)F)CC1 [Compound 162A, (1R,4R)-N^1,N^1-diethyl-N4-(2-{3-[(4-methanesulfonyl-2-methoxyphenyl)amino]prop-1-yn-1-yl}-1-(2,2,2-trifluoroethyl)-1H-indol-4-yl)cyclohexane-1,4-diamine] | + (+ = 0 μM ≤ SC150 < 0.05 μM)
COc1cc(Cl)ccc1NCC#Cc1cc2c(N[C@H]3CC[C@H](N(C)C)CC3)cccc2n1CC(F)(F)F [Compound 130A, (1R,4R)—N^4-(2-{3-[(4-chloro-2-methoxyphenyl)amino]prop-1-yn-1-yl}-1-(2,2,2-trifluoroethyl)-1H-indol-4-yl)-N^1,N^1-dimethylcyclohexane-1,4-diamine] | + (+ = 0 μM ≤ SC150 < 0.05 μM)
COc1cc(S(N)(=O)=O)ccc1NCC#Cc1cc2c(N[C@H]3CC[C@H](N4CC5CC(C4)O5)CC3)cccc2n1CC(F)(F)F [Compound 400A, 3-methoxy-4-{[3-(4-{[(1R,4R)-4-{6-oxa-3-azabicyclo[3.1.1]heptan-3-yl}cyclohexyl]amino}-1-(2,2,2-trifluoroethyl)-1H-indol-2-yl)prop-2-yn-1-yl]amino}benzene-1-sulfonamide] | + (+ = 0 μM ≤ SC150 < 0.05 μM)
COC(=O)CC[C@H](NC(=O)c1ccc(NCC#Cc2cc3c(N[C@@H]4CCN(C)C[C@@H]4F)cccc3n2CC(F)(F)F)c(OC)c1)C(=O)OC [Compound 932A, 1,5-dimethyl (2S)-2-[(4-{[3-(4-{[(3S,4R)-3-fluoro-1-methylpiperidin-4-yl]amino}-1-(2,2,2-trifluoroethyl)-1H-indol-2-yl)prop-2-yn-1-yl]amino}-3-methoxyphenyl)formamido]pentanedioate] | + (+ = 0 μM ≤ SC150 < 0.05 μM)
CCC(=O)NS(=O)(=O)c1ccc(NCC#Cc2cc3c(N[C@H]4CC[C@H](N5CC6(COC6)C5)CC4)cccc3n2CC(F)(F)F)c(OC)c1 [Compound 206A, N-(3-methoxy-4-{[3-(4-{[(1R,4R)-4-{2-oxa-6-azaspiro[3.3]heptan-6-yl}cyclo-hexyl]amino}-1-(2,2,2-trifluoroethyl)-1H-indol-2-yl)prop-2-yn-1-yl]amino}benzene-sulfonyl)propanamide] | + (+ = 0 μM ≤ SC150 < 0.05 μM)

Other lines, results leading:

SC150 (concentration of the compound required to increase the DNA binding activity by 50%) | Compound
+ (+ = 0 μM ≤ SC150 < 0.05 μM) | CCC(=O)NS(=O)(=O)c1ccc(NCC#Cc2cc3c(NC4CCN(CC(COC)OC(=O)CC)CC4)cccc3n2CC(F)(F)F)c(OC)c1 (stereo not shown) [Compound 627A, 1-methoxy-3-(4-{[2-(3-{[2-methoxy-4-(propanamidosulfonyl)phenyl]amino}prop-1-yn-1-yl)-1-(2,2,2-trifluoroethyl)-1H-indol-4-yl]amino}piperidin-1-yl)propan-2-yl propanoate]
+ (+ = 0 μM ≤ SC150 < 0.05 μM) | CCN1CC[C@@H](Nc2cccc3c2cc(C#CCNc2ccc(C(N)=O)cc2OC)n3CC(F)(F)F)[C@@H](F)C1 [Compound 1063A, 4-{[3-(4-{[(3S,4R)-1-ethyl-3-fluoropiperidin-4-yl]amino}-1-(2,2,2-trifluoroethyl)-1H-indol-2-yl)prop-2-yn-1-yl]amino}-3-methoxybenzamide]
+ (+ = 0 μM ≤ SC150 < 0.05 μM) | COc1cc(C(=O)N[C@@H](CCC(=O)O)C(=O)O)ccc1NCC#Cc1cc2c(N[C@@H]3CCN(C)C[C@@H]3F)cccc2n1CC(F)(F)F [Compound 929A, (2S)-2-[(4-{[3-(4-{[(3S,4R)-3-fluoro-1-methylpiperidin-4-yl]amino}-1-(2,2,2-trifluoroethyl)-1H-indol-2-yl)prop-2-yn-1-yl]amino}-3-methoxyphenyl)formamido]pentanedioic acid]
+++ (+++ = 0.1 μM ≤ SC150 < 0.2 μM) | COc1cc(S(C)(=O)=O)ccc1NCC#Cc1cc2c(NC3CCN(c4nc(C)cs4)CC3)cccc2n1CC(F)(F)F [Compound 719A]
+ (+ = 0 μM ≤ SC150 < 0.05 μM) | COc1cc(S(C)(=O)=O)ccc1NCC#Cc1cc2c(NC3CCN(C[C@@H]4COC(C)(C)O4)CC3)cccc2n1CC(F)(F)F [Compound 566A, N-(1-{[(4R)-2,2-dimethyl-1,3-dioxolan-4-yl]methyl}piperidin-4-yl)-2-{3-[(4-methanesulfonyl-2-methoxyphenyl)amino]prop-1-yn-1-yl}-1-(2,2,2-trifluoroethyl)-1H-indol-4-amine]
+ (+ = 0 μM ≤ SC150 < 0.05 μM) | COc1cc(C(=O)O)ccc1NCC#Cc1cc2c(N[C@H]3CCN(C)C[C@H]3F)cccc2n1CC(F)(F)F [Compound 780A, 4-{[3-(4-{[(3R,4S)-3-fluoro-1-methylpiperidin-4-yl]amino}-1-(2,2,2-trifluoroethyl)-1H-indol-2-yl)prop-2-yn-1-yl]amino}-3-methoxybenzoic acid]
+ (+ = 0 μM ≤ SC150 < 0.05 μM) | CNC(=O)c1ccc(NCC#Cc2cc3c(NC4CCN(CC(O)COC)CC4)cccc3n2CC(F)(F)F)c(OCCC#N)c1 (stereo not shown) [Compound 659A, 3-(2-cyanoethoxy)-4-{[3-(4-{[1-(2-hydroxy-3-methoxypropyl)piperidin-4-yl]amino}-1-(2,2,2-trifluoroethyl)-1H-indol-2-yl)prop-2-yn-1-yl]amino}-N-methylbenzamide]
+ (+ = 0 μM ≤ SC150 < 0.05 μM) | CNC(=O)c1ccc(NCC#Cc2cc3c(N[C@H]4CC[C@H](N5CC6(COC6)C5)CC4)cccc3n2CC(F)(F)F)c(OCCF)c1 [Compound 240A, 3-(2-fluoroethoxy)-N-methyl-4-{[3-(4-{[(1R,4R)-4-{2-oxa-6-azaspiro[3.3]heptan-6-yl}cyclohexyl]amino}-1-(2,2,2-trifluoroethyl)-1H-indol-2-yl)prop-2-yn-1-yl]amino}benzamide]
++++ (++++ = 0.2 μM ≤ SC150 < 1 μM) | COc1cc(S(C)(=O)=O)ccc1NCC#Cc1cc2c(NC(=O)NC3CCN(CCO)CC3)cccc2n1CC(F)(F)F [Compound 17A, 1-[1-(2-hydroxyethyl)piperidin-4-yl]-3-(2-{3-[(4-methanesulfonyl-2-methoxyphenyl)amino]prop-1-yn-1-yl}-1-(2,2,2-trifluoroethyl)-1H-indol-4-yl)urea]
++ (++ = 0.05 μM ≤ SC150 < 0.1 μM) | COCC(O)CN1CCC(Nc2cccc3c2cc(C#CCNc2ccc(S(C)(=O)=O)cc2C(F)(F)F)n3CC(F)(F)F)CC1 (stereo not shown) [Compound 708A, 1-(4-{[2-(3-{[4-methanesulfonyl-2-(trifluoromethyl)phenyl]amino}prop-1-yn-1-yl)-1-(2,2,2-trifluoroethyl)-1H-indol-4-yl]amino}piperidin-1-yl)-3-methoxypropan-2-ol]
